# Test system: diarrhea-predominant IBS subjects
# Experiment: 3007 Study: open-label 52-week safety study, adverse events and withdrawals
# Conditions: C/C group
smiles,measurement,value
"Cc1nccn1C[C@H]1CCc2c(c3cccc4c3n2CCC4)C1=O [cilansetron, (R)-(−)-4,5,6,8,9,10-hexahydro-10-[(2-methyl-1H-imidazol-1-yl)methyl]-11H-pyrido-[3,2,1-jk]-carbazol-11-one]",TEAE: Labyrinthitis NOS,2 (<1%) n (%)
same,TEAE: Lacrimal Disorders,2 (<1%) n (%)
same,TEAE: Lactose Intolerance,0 n (%)
same,TEAE: Laryngeal and Adjacent Sites Disorders NEC (Excl Infections and Neoplasms),2 (<1%) n (%)
same,TEAE: Laryngitis NOS,2 (<1%) n (%)
same,TEAE: Leiomyoma NOS,1 (<1%) n (%)
same,TEAE: Lethargy,0 n (%)
same,TEAE: Leukopenia NOS,2 (<1%) n (%)
same,TEAE: Leukopenias NEC,2 (<1%) n (%)
same,TEAE: Libido Decreased,0 n (%)
same,"TEAE: Lid, Lash and Lacrimal Structural Disorders (Excl Congenital)",1 (<1%) n (%)
same,TEAE: Lipid Metabolism Disorder NOS,1 (<1%) n (%)
same,TEAE: Lipid Metabolism and Deposit Disorders NEC,1 (<1%) n (%)
same,TEAE: Lipoma NOS,2 (<1%) n (%)
same,TEAE: Lower Respiratory Tract Signs and Symptoms,1 (<1%) n (%)
same,TEAE: Lymphadenopathy,1 (<1%) n (%)
same,TEAE: Lymphangitis and Lymphatic Disorders NEC,1 (<1%) n (%)
same,TEAE: Meniere's Disease,1 (<1%) n (%)
same,TEAE: Menorrhagia*,1 (<1%) n (%)
same,TEAE: Menstruation Irregular*,0 n (%)
same,TEAE: Menstruation and Uterine Bleeding NEC*,1 (<1%) n (%)
same,TEAE: Menstruation with Decreased Bleeding*,1 (<1%) n (%)
same,TEAE: Menstruation with Increased Bleeding*,2 (1%) n (%)
same,TEAE: Mental Disorders NEC,0 n (%)
same,TEAE: Mental Status Changes,0 n (%)
same,TEAE: Metabolism and Nutrition Disorders,11 (4%) n (%)
same,TEAE: Middle Ear Disorders NEC,1 (<1%) n (%)
same,TEAE: Motion Sickness,0 n (%)
same,TEAE: Myocardial Infarction,1 (<1%) n (%)
same,TEAE: Nail and Nail Bed Conditions (Excl Infections and Infestations),0 n (%)
same,TEAE: Nasal Congestion and Inflammations,7 (3%) n (%)
same,TEAE: Neoplasms Benign Site Unspecified NEC,1 (<1%) n (%)
same,"TEAE: Neoplasms Benign, Malignant and Unspecified (Incl Cysts and Polyps)",9 (4%) n (%)
same,"TEAE: Normal Pregnancy, Labour and Delivery*",1 (<1%) n (%)
same,TEAE: Ocular Disorders NEC,0 n (%)
same,TEAE: Ocular Nerve and Muscle Disorders,0 n (%)
same,TEAE: Oedema NEC,4 (2%) n (%)
same,TEAE: Oedema NOS,0 n (%)
same,TEAE: Oedema Peripheral,4 (2%) n (%)
same,TEAE: Ovarian Cancer NOS*,1 (<1%) n (%)
same,TEAE: Ovarian Cystadenofibroma*,0 n (%)
same,TEAE: Ovarian Neoplasms Benign*,0 n (%)
same,TEAE: Ovarian Neoplasms Malignant (Excl Germ Cell)*,1 (<1%) n (%)
same,TEAE: Pain NOS,2 (<1%) n (%)
same,TEAE: Pain and Discomfort NEC,5 (2%) n (%)
same,TEAE: Palpitations,2 (<1%) n (%)
same,TEAE: Panic Attack,0 n (%)
same,TEAE: Panic Symptoms,0 n (%)
same,TEAE: Papulosquamous Conditions,0 n (%)
same,TEAE: Paranasal Sinus Disorders (Excl Infections and Neoplasms),6 (2%) n (%)
same,TEAE: Paranasal Sinus Hypersecretion,1 (<1%) n (%)
same,TEAE: Partial Vision Loss,0 n (%)
same,TEAE: Pelvic Pain NOS,0 n (%)
same,TEAE: Penile Disorders NEC (Excl Erection and Ejaculation)*,0 n (%)
same,TEAE: Penile Haemorrhage*,0 n (%)
same,TEAE: Perception Disturbances,0 n (%)
same,TEAE: Peripheral Embolism NOS,0 n (%)
same,TEAE: Peripheral Embolism and Thrombosis,0 n (%)
same,TEAE: Peripheral Vascular Disorders NEC,2 (<1%) n (%)
same,TEAE: Pharyngitis,3 (1%) n (%)
same,TEAE: Polydipsia,0 n (%)
same,TEAE: Polyuria,0 n (%)
same,TEAE: Posterior Capsule Opacification,0 n (%)
same,TEAE: Postnasal Drip,0 n (%)
same,TEAE: Pregnancy NOS*,1 (<1%) n (%)
same,"TEAE: Pregnancy, Puerperium and Perinatal Conditions",1 (<1%) n (%)
same,TEAE: Premenopause*,0 n (%)
same,TEAE: Premenstrual Syndrome*,1 (<1%) n (%)
same,TEAE: Productive Cough,1 (<1%) n (%)
same,TEAE: Prostate and Seminal Vesicles Infections and Inflammations*,2 (2%) n (%)
same,TEAE: Prostatitis*,2 (2%) n (%)
same,TEAE: Proteinuria,1 (<1%) n (%)
same,TEAE: Pruritus NEC,3 (1%) n (%)
same,TEAE: Pruritus NOS,3 (1%) n (%)
same,TEAE: Psoriasis,0 n (%)
same,TEAE: Psychiatric Disorders,15 (6%) n (%)
same,TEAE: Psychotic Disorder NEC,0 n (%)
same,TEAE: Psychotic Disorder NOS,0 n (%)
same,TEAE: Purine Metabolism Disorders NEC,2 (<1%) n (%)
same,TEAE: Pyrexia,2 (<1%) n (%)
same,TEAE: Rash Macular,0 n (%)
same,TEAE: Rash NOS,4 (2%) n (%)
same,"TEAE: Rashes, Eruptions and Exanthems NEC",4 (2%) n (%)
same,TEAE: Rate and Rhythm Disorders NEC,2 (<1%) n (%)
same,TEAE: Refractive Errors NOS,1 (<1%) n (%)
same,TEAE: Refractive and Accommodative Disorders,1 (<1%) n (%)
same,TEAE: Renal Lithiasis,3 (1%) n (%)
same,TEAE: Renal and Urinary Disorders,13 (5%) n (%)
same,TEAE: Reproductive System and Breast Disorders,12 (5%) n (%)
same,TEAE: Reproductive Tract Signs and Symptoms NEC,1 (<1%) n (%)
same,TEAE: Respiratory Tract Congestion,1 (<1%) n (%)
same,TEAE: Respiratory Tract Disorders NEC,1 (<1%) n (%)
same,"TEAE: Respiratory, Thoracic and Mediastinal Disorders",28 (11%) n (%)
same,TEAE: Retinal Detachment,1 (<1%) n (%)
same,"TEAE: Retinal Structural Change, Deposit and Degeneration",1 (<1%) n (%)
same,TEAE: Rhinitis Allergic NOS,3 (1%) n (%)
same,TEAE: Rhinitis NOS,3 (1%) n (%)
same,TEAE: Rhinitis Seasonal,1 (<1%) n (%)
same,TEAE: Rosacea,1 (<1%) n (%)
same,TEAE: Rosaceas,1 (<1%) n (%)
same,TEAE: Seasonal Allergy,4 (2%) n (%)
same,TEAE: Sexual Desire Disorders,0 n (%)
same,TEAE: Sick Sinus Syndrome,0 n (%)
same,TEAE: Sinus Arrhythmia,0 n (%)
same,TEAE: Sinus Congestion,5 (2%) n (%)
same,TEAE: Skin Disorder NOS,0 n (%)
same,TEAE: Skin Injuries and Mechanical Dermatoses,1 (<1%) n (%)
same,TEAE: Skin Lesion NOS,1 (<1%) n (%)
same,TEAE: Skin Neoplasms Benign,0 n (%)
same,TEAE: Skin Neoplasms Malignant and Unspecified (Excl Melanoma),2 (<1%) n (%)
same,TEAE: Skin Ulcer,0 n (%)
same,TEAE: Skin and Subcutaneous Tissue Disorders,14 (5%) n (%)
same,TEAE: Skin and Subcutaneous Tissue Ulcerations,0 n (%)
same,TEAE: Social Circumstances,0 n (%)
same,TEAE: Soft Tissue Neoplasms Benign NEC,3 (1%) n (%)
same,TEAE: Strabismus,0 n (%)
same,TEAE: Stress Incontinence,1 (<1%) n (%)
same,TEAE: Stress Symptoms,0 n (%)
same,TEAE: Structural and Other Bile Duct Disorders,0 n (%)
same,TEAE: Sugar Intolerance (Excl Glucose Intolerance),0 n (%)
same,TEAE: Suicidal Ideation,0 n (%)
same,TEAE: Suicidal and Self-Injurious Behaviour,0 n (%)
same,TEAE: Supraventricular Arrhythmias,1 (<1%) n (%)
same,TEAE: Supraventricular Tachycardia,0 n (%)
same,TEAE: Surgical and Medical Procedures,1 (<1%) n (%)
same,TEAE: Sweating Increased,0 n (%)
same,TEAE: Swelling Face,0 n (%)
same,TEAE: Tachycardia NOS,1 (<1%) n (%)
same,TEAE: Tenderness NOS,0 n (%)
same,TEAE: Thrombocytopenia,0 n (%)
same,TEAE: Thrombocytopenias,0 n (%)
same,TEAE: Thrombophlebitis Superficial,0 n (%)
same,TEAE: Thyroid Disorders NEC,1 (<1%) n (%)
same,TEAE: Thyroid Hypofunction Disorders,1 (<1%) n (%)
same,TEAE: Thyroid Neoplasms,0 n (%)
same,TEAE: Thyroid Nodule,0 n (%)
same,TEAE: Tinnitus,1 (<1%) n (%)
same,TEAE: Total Fluid Volume Decreased,1 (<1%) n (%)
same,TEAE: Tympanic Membrane Disorder NOS,0 n (%)
same,TEAE: Tympanic Membrane Disorders (Excl Infections),0 n (%)
same,TEAE: Upper Respiratory Tract Signs and Symptoms,3 (1%) n (%)
same,TEAE: Urinary Abnormalities,5 (2%) n (%)
same,TEAE: Urinary Frequency,2 (<1%) n (%)
same,TEAE: Urinary Incontinence,1 (<1%) n (%)
same,TEAE: Urinary Retention,1 (<1%) n (%)
same,TEAE: Urinary Tract Lithiasis (Excl Renal),1 (<1%) n (%)
same,TEAE: Urinary Tract Signs and Symptoms NEC,0 n (%)
same,TEAE: Urine Abnormal NOS,1 (<1%) n (%)
same,TEAE: Urticaria NOS,1 (<1%) n (%)
same,TEAE: Urticarias,1 (<1%) n (%)
same,TEAE: Uterine Disorders NEC*,2 (1%) n (%)
same,TEAE: Uterine Fibroids*,1 (<1%) n (%)
same,TEAE: Uterine Neoplasms Benign*,1 (<1%) n (%)
same,TEAE: Uterine Neoplasms*,2 (1%) n (%)
same,TEAE: Uterine Polyp NOS*,2 (1%) n (%)
same,TEAE: Vaginal Cyst*,1 (<1%) n (%)
same,TEAE: Vaginal Lesion*,1 (<1%) n (%)
same,TEAE: Varicose Vein Ruptured,2 (<1%) n (%)
same,TEAE: Varicose Veins Non-Site Specific,2 (<1%) n (%)
same,TEAE: Vascular Disorders,13 (5%) n (%)
same,TEAE: Vascular Hypertensive Disorders NEC,8 (3%) n (%)
same,TEAE: Vascular Hypotensive Disorders,0 n (%)
same,TEAE: Ventricular Arrhythmias and Cardiac Arrest,1 (<1%) n (%)
same,TEAE: Ventricular Extrasystoles,1 (<1%) n (%)
same,TEAE: Vertigo,1 (<1%) n (%)
same,TEAE: Visual Acuity Reduced,0 n (%)
same,TEAE: Vitreous Disorder NOS,0 n (%)
same,TEAE: Vulvovaginal Cysts and Neoplasms*,1 (<1%) n (%)
same,TEAE: Vulvovaginal Dryness*,0 n (%)

# Source: patent US20070093520A1, “Method of treatment of diarrhea-predominant irritable bowel syndrome in a subject” (priority 2005, published 2007)
